Results reported in patent publication US11173150B2, “Method for diagnosing, preventing, and treating neurological diseases” (United States Government As Represented By The Department …, priority 2010, dated 2021).
Values after ≈ are worked out from the molar mass of the structure shown. Bridge positions count the residues as written; N and C are the ends. Square brackets hold non-standard residues; d marks the D form. Peptide text beside a SMILES is read from it. * marks the point of attachment. Octanoyl(6-Me) = CCC(C)CCCCC(=O)*; Dab = NCC[CH](N)C(=O)O

Tests used:
Desulfovibrio = test: Antimicrobial susceptibility testing, CLSI serial two-fold plate dilution; format: cell-based
[1] = cited from earlier work; for Absorption when given by the oral route / Penetration of the intestinal mucosa: oral
clostridia = settings: cited from earlier work
[2] = Desulfovibrio type strain 7757^T
[3] = Desulfovibrio type strain 29098^T

Compound	MIC (Desulfovibrio; Desulfovibrio strain 4019) [µg/mL]	MIC (Desulfovibrio; Desulfovibrio strain 8236) [µg/mL]	MIC (Desulfovibrio; Desulfovibrio strain 8381) [µg/mL]	MIC (Desulfovibrio; Desulfovibrio strain 8907) [µg/mL]	MIC (Desulfovibrio; Desulfovibrio strain 8933) [µg/mL]	MIC (Desulfovibrio; Desulfovibrio strain 8951) [µg/mL]	MIC (Desulfovibrio; Desulfovibrio strain 9070) [µg/mL]	MIC (Desulfovibrio; Desulfovibrio strain 9120) [µg/mL]	MIC (Desulfovibrio; Desulfovibrio strain 9706) [µg/mL]	MIC (Desulfovibrio; Desulfovibrio strain 9976) [µg/mL]	MIC (Desulfovibrio; Desulfovibrio strain 10831) [µg/mL]	MIC (Desulfovibrio; Desulfovibrio strain 11232) [µg/mL]	MIC (Desulfovibrio; Desulfovibrio strain 11346) [µg/mL]	MIC (Desulfovibrio; Desulfovibrio strain 11437) [µg/mL]	MIC (Desulfovibrio; Desulfovibrio strain 11568) [µg/mL]	MIC (Desulfovibrio; Desulfovibrio strain 11623) [µg/mL]	MIC (Desulfovibrio; Desulfovibrio strain 11949) [µg/mL]	MIC (Desulfovibrio; Desulfovibrio strain 13966) [µg/mL]	MIC (Desulfovibrio; [2]) [µg/mL]	MIC (Desulfovibrio; [3]) [µg/mL]	further results
CCC(C)CCCCC(=O)NC(CCN)C(=O)NC(C(=O)NC(CCN)C(=O)NC1CCNC(=O)C(C(C)O)NC(=O)C(CCN)NC(=O)C(CCN)NC(=O)C(CC(C)C)NC(=O)C(Cc2ccccc2)NC(=O)C(CCN)NC1=O)C(C)O (centres unmarked) [Polymyxin B] ({Octanoyl(6-Me)}-[Dab]T[Dab][Dab][Dab]FL[Dab][Dab]T; lactam 4-C; configuration not given here)	256 (≈ 213 µM)	256 (≈ 213 µM)	>512	>512	>512	>512	>512	>512	>512	>512	128 (≈ 106 µM)	>512	>512	>512	>512	>512	>512	>512	256 (≈ 213 µM)	256 (≈ 213 µM)	MIC (Desulfovibrio; Desulfovibrio strain 11081): 256 µg/mL (≈ 213 µM); MIC (Desulfovibrio; Desulfovibrio strain 11094): 256 µg/mL (≈ 213 µM); MIC (Desulfovibrio; Desulfovibrio strain 11378): 256 µg/mL (≈ 213 µM); MIC (Desulfovibrio; Desulfovibrio strain 11717): 256 µg/mL (≈ 213 µM); MIC (Desulfovibrio; Desulfovibrio strain 11789): 16 µg/mL (≈ 13.3 µM); MIC (Desulfovibrio; Desulfovibrio strain 11830): 128 µg/mL (≈ 106 µM); MIC (Desulfovibrio; Desulfovibrio strain 12379): 8 µg/mL (≈ 6.65 µM); Absorption when given by the oral route [1]: virtually unabsorbed; Penetration of the intestinal mucosa [1]: do not penetrate the intestinal mucosa
Colistin	>512	>512	>512	>512	>512	>512	>512	>512	>512	>512	>512	>512	>512	>512	>512	>512	>512	>512	>512	>512	MIC (Desulfovibrio; Desulfovibrio strain 11081): >512 µg/mL; MIC (Desulfovibrio; Desulfovibrio strain 11094): >512 µg/mL; MIC (Desulfovibrio; Desulfovibrio strain 11378): >512 µg/mL; MIC (Desulfovibrio; Desulfovibrio strain 11717): >512 µg/mL; MIC (Desulfovibrio; Desulfovibrio strain 11789): >512 µg/mL; MIC (Desulfovibrio; Desulfovibrio strain 11830): >512 µg/mL; MIC (Desulfovibrio; Desulfovibrio strain 12379): >512 µg/mL; Absorption when given by the oral route [1]: virtually unabsorbed; Penetration of the intestinal mucosa [1]: do not penetrate the intestinal mucosa
Trimethoprim/sulfamethoxazole [TMX/Sul]	–	–	256	512	256	256	>512	256	256	256	–	128	512	4	>512	512	512	512	>512	256	–
ramoplanin	–	–	–	–	–	–	–	–	–	–	–	–	–	–	–	–	–	–	–	–	Activity against clostridia (clostridia): very good activity; Systemic absorption in humans ([1]; humans): not detectably absorbed
